Measurements published in patent US11993640B2, “Treating inflammatory lung disease” (United States Government as represented by the Department …, priority 2019, dated 2024).
Non-standard residues stand in square brackets, D forms with d. Residues, ends and D or L forms follow the SMILES beside them. *: point of attachment. Phe(F5) = N[C@@H](Cc1c(F)c(F)c(F)c(F)c1F)C(=O)O; hArg = N=C(N)NCCCC[C@H](N)C(=O)O; 12Ado = NCCCCCCCCCCCC(=O)O; Nle = CCCC[C@H](N)C(=O)O; Orn = NCCC[C@H](N)C(=O)O; Abu = CC[C@H](N)C(=O)O; PhAc = O=C(Cc1ccccc1)*

Assays:
[1] = test system: C57Bl/6J mice treated with bleomycin; test: Bleomycin lung injury model, lung histopathology scores (inflammation, modified Ashcroft fibrosis); format: in vivo, mouse
Description: Experimental animals. 8-week old C57Bl/6J male mice (The Jackson Laboratory, Bar Harbor, ME) were used in these experiments. Mice weighed about 26 grams at the start. Mice were randomly allocated to the experimental groups and housed in identical filter top cages in a ventilated rack. Mice were exposed to a 12-hour light/dark cycle and had free access to standard laboratory chow and water.
Bleomycin and GHRH-R antagonist treatment. Mice were treated with 0.8 units of bleomycin (Bleomycin for Injection USP, Hospira, Lake Forest, IL) intraperitoneally (IP) on days 1, 3, 7, 10, 14 and 21 (Collins S, Chan-Li Y, Oh M, Vigeland C, Limjunyawong N, Mitzner W, Powell J D, Horton M R (2016). JCI Insight 1(4):1-13). Mice (randomly assigned) were simultaneously treated subcutaneously (sc) with MIA-602 (5 μg/day) or its vehicle (100 μL/day). MIA-602 was dissolved in DMSO (ACS grade; Sigma-Aldrich) and diluted 1:500 in normal saline for daily sc injection on days 0-21.
Tissue preparations. Mice were killed by CO2 inhalation before any treatment, or on days 14 or 28 for micro-CT scans of lungs and harvesting of lung tissue (Vande Velde G, Poelmans J, De Langhe E, Hillen A, Vanoirbeek J, Himmelreich U, Lories R (2016). Dis Model Mech 9:91). The right mainstem bronchus was ligated and the right lung removed and frozen at −80° C. for hydroxyproline (HP) assays. The left lung was filled with 10% buffered formalin at ˜25 cm H2O pressure, the bronchus ligated, and the lung fixed in formalin. Fixed lungs were embedded in wax and 5 μm sections stained with hematoxylin and eosin (H&E) or Masson's trichrome stain.
Lung histopathology. Fibrosis was quantified in trichrome-stained sections using a modification of the Ashcroft score that describes grades of fibrosis. Inflammation in lung tissue was quantified in H&E stained sections (Hubner R, Gitter W, El Mokhtari N, Mathiak M, Both M, Bolte H, Freitag-Wolf S, Bewig B (2008). Biotechniques 44:507-517).
Data analysis. Data are reported as arithmetic means±SEM or SD as indicated. […]

[2] = test system: HCC1806 cells; test: In vitro cell viability, breast cancer HCC1806; format: cell-based, human; conditions: 5 μM, 72 h
Description: (§1) The inhibitory effects of the various synthesized GHRH antagonists were tested in cell proliferation assays in various human cancer cell lines including stomach cancer (KATOIII, N87), colon cancer (HT-29), urothelial cancer (J82, RT4), pancreatic cancer (PANC-1, CFPAC-1), prostatic cancer (PC3), breast cancer (MX-1, HCC1806), ovarian cancer (SK-OV-3, OVCAR-3) and lung cancer (HCC827, H460).
(§2) Cell culture. Human cancer cell lines including pancreatic (PANC-1 and CFPAC-1), lung (HCC827 and H460), stomach (NCI-N87 and KATOIII), urothelial (J82, RT4), prostatic (PC3), breast (MX-1 and HCC 1806), colorectal (HT-29), and ovarian (SK-OV-3 and OVCAR-3) were obtained from the American Type Culture Collection (ATCC) and cultured at 37° C. in a humidified 95% air/5% CO2 atmosphere in the medium recommended by ATCC.
In vitro cell viability. Cell viability was analyzed as follows: cancer cells including pancreatic (PANC-1 and CFPAC-1), lung (HCC827 and H460), stomach (NCI-N87 and KATOIII), urothelial (J82, RT4), prostatic (PC3) and breast (MX-1 and HCC 1806), colorectal (HT-29) and ovarian (SK-OV-3 and OVCAR-3) were grown on 96 well plates to ˜60% confluence, the cells were starved for 24 h in culture medium containing 0.5% FBS. Cells were then treated with GHRH antagonists MIA602 AVR compounds at concentrations of 1, 2.5 or 5 μM, or vehicle (0.1% DMSO) in quintuplicates for 72 hours. The medium was replaced every 48 hours. Cell viability was measured using CellTiter 96 aqueous one solution kit (Promega). Inhibitory effects of tested AVR compounds in comparison to that of MIA602 are presented as inhibitory potency.
Inhibitory effects of selected AVR compounds in comparison to that of MIA602 are presented as inhibitory potency (e.g., percentage of inhibition). […] The cell lines tested including lung cancer HCC827 (FIG. 2A), pancreatic cancer CFPAC-1 (FIG. 2B), stomach cancer N87 (FIG. 2C), colon cancer HT-29 (FIG. 2D), breast cancers MX-1 and HCC1806 (FIGS. 2E, F). Based on the results of cell proliferation assay after cancer cells were treated with antagonist at concentration of 5 μM for 72H, the relative inhibitory potency of AVR antagonists in comparison to MIA-602 is summarized in Table 3 A and B. Over 60 AVR compounds were tested in 12 cancer cell lines.
Based on the results of cell proliferation assay after cancer cells were treated with antagonist at concentration of 5 µM for 72H, * at concentration of 2 µM for 72 H.

[3] = test system: OVCAR-3 cells; test: In vitro cell viability, ovarian cancer OVCAR-3; format: cell-based, human; conditions: * at concentration of 2 μM for 72 h; Table 3B
Description: as §1, §2
In vitro cell viability. Cell viability was analyzed as follows: cancer cells including pancreatic (PANC-1 and CFPAC-1), lung (HCC827 and H460), stomach (NCI-N87 and KATOIII), urothelial (J82, RT4), prostatic (PC3) and breast (MX-1 and HCC 1806), colorectal (HT-29) and ovarian (SK-OV-3 and OVCAR-3) were grown on 96 well plates to ˜60% confluence, the cells were starved for 24 h in culture medium containing 0.5% FBS. […] Cell viability was measured using CellTiter 96 aqueous one solution kit (Promega). […]

[4] = day 28, bleomycin-treated mice, MIA-602 5 μg/day sc days 1-21

With `CCCC[C@H](NC(=O)[C@@H](NC(=O)[C@H](CC(=O)O)NC(=O)[C@H](CCC(N)=O)NC(=O)[C@H](CC(C)C)NC(=O)[C@H](CC(C)C)NC(=O)[C@H](CCCN)NC(=O)[C@H](Cc1c[nH]cn1)NC(=O)[C@H](C)NC(=O)[C@H](CO)NC(=O)[C@H](CC(C)C)NC(=O)[C@H](CCC(N)=O)NC(=O)[C@H](CC)NC(=O)[C@H](CC(C)C)NC(=O)[C@@H](NC(=O)[C@H](CCCN)NC(=O)[C@H](Cc1c[nH]cn1)NC(=O)[C@H](Cc1ccc(OC)cc1)NC(=O)[C@H](CCCCNC(=N)N)NC(=O)[C@H](C)NC(=O)[C@@H](NC(=O)[C@H](Cc1c(F)c(F)c(F)c(F)c1F)NC(=O)[C@@H](NC(=O)[C@H](C)NC(=O)[C@H](CC(=O)O)NC(=O)[C@@H](CCCNC(=N)N)NC(=O)[C@H](Cc1ccc(O)cc1)NC(=O)CCCCCCCCCCCNC(=O)Cc1ccccc1)[C@@H](C)CC)[C@@H](C)O)C(C)C)[C@@H](C)CC)C(=O)N[C@H](CCCNC(=N)N)C(=O)N[C@@H](CCCCNC(=N)N)C(N)=O` [MIA-602, PhAC-Ada, Tyr D-Arg, Asp, Ala, Ile, 5FPhe, Thr, Ala, Har, Tyr(Me), His, Orn, Val, Leu, Abu, Gin, Leu, Ser, Ala, His, Orn, Leu, Leu, Gin, Asp, Ile, Nle, D-Arg, Har NH2, reference compound] ({PhAc-12Ado}-Y[dR]DAI[Phe(F5)]TA[hArg]Y(Me)H[Orn]VL[Abu]QLSAH[Orn]LLQDI[Nle][dR][hArg]-NH2) the “Lung inflammatory changes and fibrosis, histopathology” value ([1]; bleomycin-treated mice, days 14 and 28) was “Both inflammatory changes and fibrosis were decreased”, the “Lung fibrosis histopathologic score, 5%-95% CI” value [1, 4] was 1.1-2.9 and the “Lung fibrosis histopathologic score, range” value [1, 4] was 1.0-3.0. The “In vitro relative inhibitory potency in comparison to MIA-602, HCC-1806” value ([2]; Table 3B) was 1, the “Relative inhibitory potency, Breast HCC1806” value ([2]; relative to MIA602 = 1, Table 3A) was 1 and the “In vitro relative inhibitory potency in comparison to MIA-602, OVCAR-3” value [3] was 1.
